Experimental data taken from patent publication US20190055576A1, “USE OF HERBICIDE-TOLERANT PROTEIN” (BEIJING DABEINONG TECHNOLOGY GROUP CO., LTD., priority 2016, published 2019).

Assays:
[1] = test system: wild-type Arabidopsis thaliana plants; experiment: Herbicide tolerance of wild-type Arabidopsis thaliana plants, resistance classes counted after spraying; type: in vivo
Source text: T1 transformants were initially selected from the background of untransformed seeds using a glufosinate selection scheme. About 40000 T1 seeds were screened, and 380 T1 positive transformants (PAT gene) were identified with a transformation efficiency of about 0.95%. The plants that were transformed with the recombinant expression vector DBN100632 were Arabidopsis thaliana plants having an ALT-1-01 nucleotide sequence located in the cytoplasm introduced (At cytoplasmic ALT-1-01), and the plants that were transformed with the recombinant expression vector DBN100631 were Arabidopsis thaliana plants having an ALT-1-01 nucleotide sequence located in the chloroplast introduced (At chloroplastic ALT-1-01); the plants that were transformed with the recombinant expression vector DBN100634 were Arabidopsis thaliana plants having an ALT-2-01 nucleotide sequence located in the cytoplasm introduced (At cytoplasmic ALT-2-01), and the plants that were transformed with the recombinant expression vector DBN100633 were Arabidopsis thaliana plants having an ALT-2-01 nucleotide sequence located in the chloroplast introduced (At chloroplastic ALT-2-01); and the plants that were transformed with the recombinant expression vector DBN100636 were Arabidopsis thaliana plants having an ALT-3-01 nucleotide sequence located in the cytoplasm introduced (At cytoplasmic ALT-3-01), and the plants that were transformed with the recombinant expression vector DBN100635 were Arabidopsis thaliana plants having an ALT-3-01 nucleotide sequence located in the chloroplast introduced (At chloroplastic ALT-3-01). The herbicide tolerance effects of At cytoplasmic ALT-1-01 T1 plants, At chloroplastic ALT-1-01 T1 plants, At cytoplasmic ALT-2-01 T1 plants, At chloroplastic ALT-2-01 T1 plants, At cytoplasmic ALT-3-01 T1 plants, At chloroplastic ALT-3-01 T1 plants and wild-type Arabidopsis thaliana plants on Sulfometuron-methyl were detected (14 days after sowing), respectively.
At cytoplasmic ALT-1-01 T1 plants, At chloroplastic ALT-1-01 T1 plants, At cytoplasmic ALT-2-01 T1 plants, At chloroplastic ALT-2-01 T1 plants, At cytoplasmic ALT-3-01 T1 plants, At chloroplastic ALT-3-01 T1 plants and wild-type Arabidopsis thaliana plants were sprayed with Sulfometuron-methyl (30 g ai/ha, 1-fold field concentration) and a blank solvent (water), respectively. Plants were counted for the resistance situations 14 days after spraying: those having a consistent growth status with the blank solvent (water) group after 14 days were classified as highly resistant plants, those having a bolting height less than ½ of that of the blank solvent (water) group after 14 days were classified as moderately resistant plants, those still not capable of bolting after 14 days were classified as poorly resistant plants, and those dead after 14 days were classified as non-resistant plants. Since each Arabidopsis thaliana T1 plant was an independent transformation event, a significant difference in individual T1 responses could be expected at a given dose.
At cytoplasmic ALT-1-01 T1 plants, At chloroplastic ALT-1-01 T1 plants, At cytoplasmic ALT-2-01 T1 plants, At chloroplastic ALT-2-01 T1 plants, At cytoplasmic ALT-3-01 T1 plants, At chloroplastic ALT-3-01 T1 plants and wild-type Arabidopsis thaliana plants in Example 4 were sprayed with iodosulfuron-methyl (10 g ai/ha, 1-fold field concentration), mesosulfuron (14 g ai/ha, 1-fold field concentration) and oxasulfuron (60 g ai/ha, 1-fold field concentration), respectively, in addition to Sulfometuron-methyl (30 g ai/ha, 1-fold field concentration) and the blank solvent (water). […]

[2] = test system: wild-type soybean plants (CK1); experiment: Sulfometuron-methyl tolerance of wild-type soybean plants, damage degree; type: in vivo; details: 120 g ai/ha
Source text: The herbicide tolerance effects of Gm cytoplasmic ALT-1-01 soybean plants, Gm chloroplastic ALT-1-01 soybean plants, Gm cytoplasmic ALT-2-01 soybean plants, Gm chloroplastic ALT-2-01 soybean plants, Gm cytoplasmic ALT-3-01 soybean plants, Gm chloroplastic ALT-3-01 soybean plants and wild-type soybean plants on Sulfometuron-methyl were detected (at seedling stage), respectively.
Gm cytoplasmic ALT-1-01 soybean plants, Gm chloroplastic ALT-1-01 soybean plants, Gm cytoplasmic ALT-2-01 soybean plants, Gm chloroplastic ALT-2-01 soybean plants, Gm cytoplasmic ALT-3-01 soybean plants, Gm chloroplastic ALT-3-01 soybean plants and wild-type soybean plants were respectively taken and sprayed with Sulfometuron-methyl (120 g ai/ha, 4-fold field concentration) and a blank solvent (water). The damage degree caused by the herbicide was measured for each plant according to the leaf curl degree and the growth point damage degree 3 days after spraying (3 DAT), 7 days after spraying (7 DAT), 14 days after spraying (14 DAT) and 21 days after spraying (21 DAT), respectively: considering conditions of leaves being flat as the untreated plants and growth points being intact as having a damage degree of 0%; considering conditions of veins being locally browned, new leaves being malformed and plant growth being slow as having a damage degree of 50%; and considering conditions of veins being purple to whole plant being dead and growth points being browned and dry as having a damage degree of 100%. There were 2 strains in Gm cytoplasmic ALT-1-01 soybean plants in total (S1 and S2), 2 strains in Gm chloroplastic ALT-1-01 soybean plants in total (S3 and S4), 2 strains in Gm cytoplasmic ALT-2-01 soybean plants in total (S5 and S6), 2 strains in Gm chloroplastic ALT-2-01 soybean plants in total (S7 and S8), 2 strains in Gm cytoplasmic ALT-3-01 soybean plants in total (S9 and S10), 2 strains in Gm chloroplastic ALT-3-01 soybean plants in total (S11 and S12), and 1 strain in wild-type soybean plants (CK1) in total; and 10-15 plants were selected from each strain and tested.

[3] = 1-fold field concentration (g ai/ha: Sulfometuron-methyl 30, iodosulfuron-methyl 10, mesosulfuron 14, oxasulfuron 60), 14 days after spraying

Structure (SMILES): COC(=O)c1ccccc1S(=O)(=O)NC(=O)Nc1nc(C)cc(C)n1 [Sulfometuron-methyl, 2-(4,6-dimethylpyrimidine-2-amino-formamido-sulfonyl) methyl benzoate]
- Highly resistant (number of plants with growth status consistent with blank solvent group) [1, 3]: 0
- Moderately resistant (number of plants with bolting height less than 1/2 of blank solvent group) [1, 3]: 0
- Non-resistant (number of plants dead) [1, 3]: 32
- Poorly resistant (number of plants still not capable of bolting) [1, 3]: 0
- herbicide tolerance of wild-type plants ([1]; 30 g ai/ha): none of the wild-type Arabidopsis thaliana plants was tolerant
- Average damage % 3DAT ([2]; CK1 (wild-type soybean), 4-fold field concentration, 3 days after spraying): 49%
- Average damage % 7DAT ([2]; CK1 (wild-type soybean), 4-fold field concentration, 7 days after spraying): 87%
- Average damage % 14DAT ([2]; CK1 (wild-type soybean), 4-fold field concentration, 14 days after spraying): 100%
- Average damage % 21DAT ([2]; CK1 (wild-type soybean), 4-fold field concentration, 21 days after spraying): 100%
- herbicide tolerance of wild-type plants ([2]; wild-type soybean plants): not tolerant
